# Earlier results in US20130274331A1, “Method for Treating Hyperuricemia in Patients with Gout Using Halofenate or Halofenic Acid and an Anti-Inflammatory Agent” (Metabolex, Inc., priority 2012, published 2013).
# Conditions: gout patients; monotherapy at 40, 80, 120, 160 and 240 mg/day
smiles,measurement,value
"O=c1[nH]cnc2c(CN3C[C@H](CO)[C@@H](O)C3)c[nH]c12 [BCX4208, 7-(((3R,4R)-3-hydroxy-4-(hydroxymethyl)pyrrolidin-1-yl)methyl)-3H-pyrrolo[3,2-d]pyrimidin-4(5H)-one]",reduction of serum uric acid,rapidly and significantly reduced serum uric acid
